{"source": "ChEMBL document CHEMBL5727909", "about": "“Pyridine derivatives and their use in the treatment of cancer and hemoglobinopathies” (2020)", "target": "Protein arginine N-methyltransferase 5 (Homo sapiens, UniProt O14744)", "sequence (O14744 whole entry)": "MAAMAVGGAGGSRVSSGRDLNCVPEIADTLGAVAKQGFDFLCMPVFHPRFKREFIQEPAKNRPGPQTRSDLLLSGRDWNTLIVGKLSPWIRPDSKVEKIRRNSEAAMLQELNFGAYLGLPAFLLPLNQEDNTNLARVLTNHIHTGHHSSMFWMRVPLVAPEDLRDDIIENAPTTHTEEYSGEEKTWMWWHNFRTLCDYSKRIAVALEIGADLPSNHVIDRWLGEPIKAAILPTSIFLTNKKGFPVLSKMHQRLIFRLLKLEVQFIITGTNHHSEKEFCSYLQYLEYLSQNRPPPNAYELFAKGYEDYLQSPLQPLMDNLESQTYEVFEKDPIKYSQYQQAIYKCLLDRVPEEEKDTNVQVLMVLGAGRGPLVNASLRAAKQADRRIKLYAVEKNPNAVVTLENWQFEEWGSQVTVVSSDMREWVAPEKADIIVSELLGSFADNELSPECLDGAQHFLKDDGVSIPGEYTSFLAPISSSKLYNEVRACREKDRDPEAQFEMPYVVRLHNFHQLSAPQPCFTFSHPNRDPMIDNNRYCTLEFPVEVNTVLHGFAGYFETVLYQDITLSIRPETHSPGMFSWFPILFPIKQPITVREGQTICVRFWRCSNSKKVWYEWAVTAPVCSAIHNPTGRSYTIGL", "assay": "Biochemical Assay : The 6 μL reactions are run in Greiner brand black 384-well low volume assay plates. All reactions contained assay buffer (phosphate buffered saline, 0.01% (v/v) Tween-20, 0.01% (w/v) albumin from chicken egg white, 1 mM Dithiothreitol, 1 μM peptide substrate, 1 μM S-Adenosyl methionine, and 15 ng/reaction enzyme, with the enzyme being omitted from negative control reactions. Compounds were added in a volume of 100 nL from dilution series prepared in DMSO, positive and negative control reactions receiving the same volume DMSO without compound. The plates were sealed with adhesive seals and incubated for 4 hours at 37 degree Celsius. Reaction progress was measured using the Transcreener EPIGEN methyltransferase assay (BellBrook Labs, Madison, Wis.) as recommended by the manufacturer. To each reaction 2 μL detection mix were added, containing coupling enzymes, fluorescence polarisation tracer, and AMP antibody. Plates were incubated for 90 minutes before being read on a PerkinElmer EnVision™ plate reader in fluorescence polarisation mode."}
{"smiles": "CC(=O)N1CCC(Nc2nccc(C(=O)NC[C@@H](O)CNC3CC4C=CC=CC4C3)c2C)CC1", "note": "(stereo partly specified)", "values": [{"measurement": "IC50", "result": 105, "unit": "nM"}]}
